By MIC is commonly meant the least concentration at which growth counts as inhibited. Higher therefore signals weaker potency.

The values below come from ChEMBL document CHEMBL1149607, “Synthesis, characterization and antimicrobial activity of new aliphatic sulfonamide” (2007).

Converted amounts (≈) assume the structure as drawn.

Common to all, as to assay type: functional
Test [1] concerns Escherichia coli. The experiment in a line: Antibacterial activity against Escherichia coli ATCC 11230 after 24 hrs by disc diffusion method. A general note: Agar diffusion results depend on both activity and mobility in agar.
For test [2], the system named is Listeria monocytogenes. Briefly: Antibacterial activity against Listeria monocytogenes Li6 isolate by microdilution broth method. For orientation: Dilution methods test growth across graded concentrations, often in twofold steps.
The test system of test [3] is Staphylococcus aureus. Briefly: Antibacterial activity against Staphylococcus aureus ATCC 25923 after 24 hrs by disc diffusion method.
The test system of test [4] is Escherichia coli. Briefly: Antibacterial activity against Escherichia coli ATCC 11230 by microdilution broth method.
Test [5] relates to Candida albicans. The experiment in a line: Antifungal activity against Candida albicans by microdilution broth method.
Test [6] has as its system Bacillus cereus. Briefly: Antibacterial activity against Bacillus cereus ATCC […] by microdilution broth method.
Test [7] deals with Candida albicans. Briefly: Antifungal activity against Candida albicans after 48 hrs by disc diffusion method.
Test [8] deals with Staphylococcus aureus. Briefly: Antibacterial activity against Staphylococcus aureus ATCC 25923 by microdilution broth method.
Test [9] deals with Listeria monocytogenes. Briefly: Antibacterial activity against Listeria monocytogenes Li6 isolate after 24 hrs by disc diffusion method.
Test [10] deals with Bacillus cereus. Briefly: Antibacterial activity against Bacillus cereus ATCC […] after 24 hrs by disc diffusion method.
Test [11] has as its system Escherichia coli. Briefly: Antibacterial activity against Escherichia coli ATCC 11230 at 10 ug after 24 hrs by disc diffusion method. The following applies: ATCC 11230, 24 h, read-out: IZ.
For test [12], the system named is Candida albicans. Briefly: Antifungal activity against Candida albicans at 50 ug after 48 hrs by disc diffusion method. The conditions noted are these: read-out: IZ.
Test [13] relates to Bacillus cereus. The experiment in a line: Antibacterial activity against Bacillus cereus ATCC […] at 1 ug after 24 hrs by disc diffusion method. The following applies: read-out: IZ.
Test [14] relates to Staphylococcus aureus. The experiment in a line: Antibacterial activity against Staphylococcus aureus ATCC 25923 at 10U by disc diffusion method.

In the case of `CCCS(=O)(=O)NCCCNS(=O)(=O)CCC`, the “inhibition zone (IZ)” value with Escherichia coli [1] came out at 12 mm; with Staphylococcus aureus [3] it was 11 mm; in the test on Candida albicans [7] it was 12 mm; with Listeria monocytogenes [9] it was 11 mm. Besides, the minimal inhibitory concentration (MIC) came out at 532 µg/mL (≈ 1860 µM) against Listeria monocytogenes [2]; 228 µg/mL (≈ 796 µM) against Escherichia coli [4]; 532 µg/mL (≈ 1860 µM) in the test with Candida albicans [5]; 380 µg/mL (≈ 1330 µM) against Bacillus cereus [6]; 456 µg/mL (≈ 1590 µM) against Staphylococcus aureus [8].
Consider `CCCS(=O)(=O)NCCCCNS(=O)(=O)CCC`, for which, in the test with Escherichia coli [1], the “inhibition zone (IZ)” value came out at 12 mm. Also, the MIC in the test with Listeria monocytogenes [2] worked out at 228 µg/mL (≈ 759 µM); in the test with Escherichia coli [4], 240 µg/mL (≈ 799 µM); in the test on Candida albicans [5], 336 µg/mL (≈ 1120 µM); in the test on Bacillus cereus [6] it was 336 µg/mL (≈ 1120 µM); in the test with Staphylococcus aureus [8], 336 µg/mL (≈ 1120 µM).
As for `CCCCS(=O)(=O)NCCNS(=O)(=O)CCCC`, the “inhibition zone (IZ)” value with Escherichia coli [1] worked out at 10 mm. Moreover, the minimal inhibitory concentration (MIC) with Listeria monocytogenes [2] is 216 µg/mL (≈ 719 µM); in the test on Escherichia coli [4], 243 µg/mL (≈ 809 µM); in the test on Candida albicans [5] it was 324 µg/mL (≈ 1080 µM); against Bacillus cereus [6], 243 µg/mL (≈ 809 µM); in the test on Staphylococcus aureus [8], 216 µg/mL (≈ 719 µM).
For the molecule `CCCCS(=O)(=O)NCCCNS(=O)(=O)CCCC`, the “inhibition zone (IZ)” value is on record as 10 mm in the test on Escherichia coli [1], 10 mm in the test with Bacillus cereus [10], 10 mm in the test on Candida albicans [7] and 11 mm with Listeria monocytogenes [9]. Further, the MIC in the test with Listeria monocytogenes [2] was 225 µg/mL (≈ 715 µM); in the test on Escherichia coli [4], 225 µg/mL (≈ 715 µM); in the test on Candida albicans [5], 315 µg/mL (≈ 1000 µM); in the test on Bacillus cereus [6] it was 180 µg/mL (≈ 572 µM); against Staphylococcus aureus [8] it was 270 µg/mL (≈ 859 µM).
As to `CCCCS(=O)(=O)NCCCCCNS(=O)(=O)CCCC`, the “inhibition zone (IZ)” value with Escherichia coli [1] is recorded as 12 mm; in the test with Candida albicans [7], 13 mm. Moreover, the minimum inhibitory concentration (MIC) with Listeria monocytogenes [2] is 432 µg/mL (≈ 1260 µM); in the test on Escherichia coli [4], 486 µg/mL (≈ 1420 µM); in the test with Candida albicans [5], 540 µg/mL (≈ 1580 µM); against Bacillus cereus [6], 540 µg/mL (≈ 1580 µM); against Staphylococcus aureus [8], 432 µg/mL (≈ 1260 µM).
Take `CCCCS(=O)(=O)NCCCCNS(=O)(=O)CCCC`: the “inhibition zone (IZ)” value in the test with Escherichia coli [1] came out at 11 mm; with Staphylococcus aureus [3], 10 mm; in the test with Candida albicans [7], 12 mm. Also, the minimal inhibitory concentration (MIC) against Listeria monocytogenes [2] came to 648 µg/mL (≈ 1970 µM); against Escherichia coli [4], 555 µg/mL (≈ 1690 µM); in the test on Candida albicans [5], 555 µg/mL (≈ 1690 µM); against Bacillus cereus [6], 463 µg/mL (≈ 1410 µM); in the test with Staphylococcus aureus [8], 648 µg/mL (≈ 1970 µM).
Consider `CCCS(=O)(=O)NCCNS(=O)(=O)CCC`, for which the “inhibition zone (IZ)” value in the test on Escherichia coli [1] is given as 11 mm; in the test on Staphylococcus aureus [3], 12 mm; with Listeria monocytogenes [9], 16 mm. Moreover, the MIC against Listeria monocytogenes [2] came to 300 µg/mL (≈ 1100 µM); with Escherichia coli [4], 150 µg/mL (≈ 551 µM); in the test with Candida albicans [5], 300 µg/mL (≈ 1100 µM); against Bacillus cereus [6] it was 250 µg/mL (≈ 918 µM); against Staphylococcus aureus [8], 300 µg/mL (≈ 1100 µM).
In the case of `CC1(C)S[C@@H]2[C@H](NC(=O)[C@H](N)c3ccccc3)C(=O)N2[C@H]1C(=O)O` [AMPICILLIN], in the test on Escherichia coli [11], the zone of inhibition at 10 µg/disc is 9 mm.
With `CC(=O)N1CCN(c2ccc(OC[C@H]3CO[C@](Cn4ccnc4)(c4ccc(Cl)cc4Cl)O3)cc2)CC1` [KETOCONAZOLE], the zone of inhibition at 50 µg/disc with Candida albicans [12] came to 16 mm.
On to `Cc1onc(-c2ccccc2)c1C(=O)N[C@@H]1C(=O)N2[C@@H]1SC(C)(C)[C@@H]2C(=O)O` [OXACILLIN], for which the zone of inhibition at 1 µg/disc in the test on Bacillus cereus [13] worked out at 9 mm.
For `CC1(C)S[C@@H]2[C@H](NC(=O)Cc3ccccc3)C(=O)N2[C@H]1C(=O)O` [PENICILLIN G], the “inhibition zone (IZ)” value in the test with Staphylococcus aureus [14] is recorded as 19 mm.
